Measured values taken from patent publication US5763404A, “Methods for using LHRH antagonists with low histamine release” (priority 1995, dated 1998).
Starred links: 1 amine or outer side, 2 acyl side, 3 side chain; linkers in the order of their positions; H or OH if unused. Non-standard residues stand in square brackets, D forms with d. Residues, ends and D or L forms follow the SMILES beside them. *: point of attachment. dAla(cis-4-NHCOPyz-cHex) = N[C@H](C[C@H]1CC[C@@H](NC(=O)c2cnccn2)CC1)C(=O)O; X4 = O=C(N[C@H]1CC[C@@H](C[C@@H](N[*:1])C(=O)[*:2])CC1)c1cccnc1; dPhe(3,4-Cl2) = N[C@H](Cc1ccc(Cl)c(Cl)c1)C(=O)O; dPhe(4-Cl) = N[C@H](Cc1ccc(Cl)cc1)C(=O)O; d2Nal = N[C@H](Cc1ccc2ccccc2c1)C(=O)O; Nicotinoyl(6-Me) = Cc1ccc(C(=O)*)cn1; Lys(iPr) = CC(C)NCCCC[C@H](N)C(=O)O; Lys(Me2) = CN(C)CCCC[C@H](N)C(=O)O; Orn(iPr) = CC(C)NCCC[C@H](N)C(=O)O; Benzoyl(4-OH) = O=C(c1ccc(O)cc1)*; Pyrazinecarbonyl = O=C(c1cnccn1)*; 3Pal = N[C@@H](Cc1cccnc1)C(=O)O; d3Pal = N[C@H](Cc1cccnc1)C(=O)O; Cit = NC(=O)NCCC[C@H](N)C(=O)O; Isonicotinoyl = O=C(c1ccncc1)*; Nicotinoyl = O=C(c1cccnc1)*; Picolinoyl = O=C(c1ccccn1)*; Orn = NCCC[C@H](N)C(=O)O; dAbu = CC[C@@H](N)C(=O)O; Abu = CC[C@H](N)C(=O)O

These molecules were tested on anaesthesized rats (assay: wheal test, intradermal injection). Conditions: 10 ug peptide intradermally.
Assay type: in vivo, rat
Outline: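 Anaesthetized rats given intradermal injection of 10 ug peptide in 100 ul saline; area of the wheal calculated from its diameter.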

Structure (SMILES)	Wheal Area [mm^2 /10 μg]
CC(=O)N[C@H](Cc1ccc(Cl)c(Cl)c1)C(=O)N[C@H](Cc1ccc(Cl)cc1)C(=O)N[C@H](Cc1cccnc1)C(=O)N[C@@H](CO)C(=O)N[C@@H](CCCCNC(=O)c1ccccn1)C(=O)N[C@H](CCCCNC(=O)c1ccccn1)C(=O)N[C@@H](CC(C)C)C(=O)N[C@@H](CCCCNC(C)C)C(=O)N1CCC[C@H]1C(=O)N[C@H](C)C(N)=O [compound 26100] (Ac-[dPhe(3,4-Cl2)][dPhe(4-Cl)][d3Pal]SK(Picolinoyl)[dK](Picolinoyl)L[Lys(iPr)]P[dA]-NH2)	116.2 ± 3.7
CCNC(=O)[C@@H]1CCCN1C(=O)[C@H](CCCCNC(C)C)NC(=O)[C@H](CC(C)C)NC(=O)[C@@H](C[C@H]1CC[C@@H](NC(=O)c2cnccn2)CC1)NC(=O)[C@H](CCCCNC(=O)c1ccccn1)NC(=O)[C@H](CO)NC(=O)[C@@H](Cc1cccnc1)NC(=O)[C@@H](Cc1ccc(Cl)cc1)NC(=O)[C@@H](Cc1ccc2ccccc2c1)NC(C)=O [compound 26383] (Ac-[d2Nal][dPhe(4-Cl)][d3Pal]SK(Picolinoyl)[dAla(cis-4-NHCOPyz-cHex)]L[Lys(iPr)]P-NHEt)	119.6 ± 6.6
CC[C@H](NC(=O)[C@@H](CCCCNC(=O)c1ccccn1)NC(=O)[C@H](CCCNC(N)=O)NC(=O)[C@H](CO)NC(=O)[C@@H](Cc1cccnc1)NC(=O)[C@@H](Cc1ccc(Cl)cc1)NC(=O)[C@@H](Cc1ccc2ccccc2c1)NC(C)=O)C(=O)N[C@@H](CCCCNC(C)C)C(=O)N1CCC[C@H]1C(=O)N[C@H](C)C(N)=O [compound 26382] (Ac-[d2Nal][dPhe(4-Cl)][d3Pal]S[Cit][dK](Picolinoyl)[Abu][Lys(iPr)]P[dA]-NH2)	89.5 ± 5.5
CC(=O)N[C@H](Cc1ccc2ccccc2c1)C(=O)N[C@H](Cc1ccc(Cl)cc1)C(=O)N[C@H](Cc1cccnc1)C(=O)N[C@@H](CO)C(=O)N[C@@H](CCCCNC(=O)c1cccnc1)C(=O)N[C@H](C[C@H]1CC[C@@H](NC(=O)c2cccnc2)CC1)C(=O)N[C@@H](CC(C)C)C(=O)N[C@@H](CCCCNC(C)C)C(=O)N1CCC[C@H]1C(=O)N[C@H](C)C(N)=O [IBR 25648] (Ac-[d2Nal][dPhe(4-Cl)][d3Pal]SK(Nicotinoyl)[X4]L[Lys(iPr)]P[dA]-NH2)	101.8 ± 4.3
CC[C@H](NC(=O)[C@@H](CCCCNC(=O)c1ccccn1)NC(=O)[C@H](CCCCNC(=O)c1ccccn1)NC(=O)[C@H](CO)NC(=O)[C@@H](Cc1cccnc1)NC(=O)[C@@H](Cc1ccc(Cl)cc1)NC(=O)[C@@H](Cc1ccc2ccccc2c1)NC(C)=O)C(=O)N[C@@H](CCCCNC(C)C)C(=O)N1CCC[C@H]1C(=O)N[C@H](C)C(N)=O [compound 25990] (Ac-[d2Nal][dPhe(4-Cl)][d3Pal]SK(Picolinoyl)[dK](Picolinoyl)[Abu][Lys(iPr)]P[dA]-NH2)	91.0 ± 5.4

Now from value to molecule:

Wheal Area [mm^2 /10 μg]	Structure (SMILES)
109.9 ± 3.0	CC[C@@H](NC(=O)[C@@H]1CCCN1C(=O)[C@H](CCCCNC(C)C)NC(=O)[C@H](CC(C)C)NC(=O)[C@@H](CCCCNC(=O)c1ccccn1)NC(=O)[C@H](CCCCNC(=O)c1ccccn1)NC(=O)[C@H](CO)NC(=O)[C@@H](Cc1cccnc1)NC(=O)[C@@H](Cc1ccc(Cl)cc1)NC(=O)[C@@H](Cc1ccc2ccccc2c1)NC(C)=O)C(N)=O [compound 26019] (Ac-[d2Nal][dPhe(4-Cl)][d3Pal]SK(Picolinoyl)[dK](Picolinoyl)L[Lys(iPr)]P[dAbu]-NH2)
101.7 ± 5.0	CC(=O)N[C@H](Cc1ccc2ccccc2c1)C(=O)N[C@H](Cc1ccc(Cl)cc1)C(=O)N[C@H](Cc1cccnc1)C(=O)N[C@@H](CO)C(=O)N[C@@H](CCCCNC(=O)c1cccnc1)C(=O)N[C@H](C[C@H]1CC[C@@H](NC(=O)c2cnccn2)CC1)C(=O)N[C@@H](CC(C)C)C(=O)N[C@@H](CCCCNC(C)C)C(=O)N1CCC[C@H]1C(=O)N[C@H](C)C(N)=O [compound 25806] (Ac-[d2Nal][dPhe(4-Cl)][d3Pal]SK(Nicotinoyl)[dAla(cis-4-NHCOPyz-cHex)]L[Lys(iPr)]P[dA]-NH2)
95.1 ± 5.0	CC[C@H](NC(=O)[C@@H](CCCCNC(=O)c1ccccn1)NC(=O)[C@H](CCCCNC(=O)c1ccc(O)cc1)NC(=O)[C@H](CO)NC(=O)[C@@H](Cc1cccnc1)NC(=O)[C@@H](Cc1ccc(Cl)cc1)NC(=O)[C@@H](Cc1ccc2ccccc2c1)NC(C)=O)C(=O)N[C@@H](CCCCNC(C)C)C(=O)N1CCC[C@H]1C(=O)N[C@H](C)C(N)=O [compound 26381] (Ac-[d2Nal][dPhe(4-Cl)][d3Pal]SK(Benzoyl(4-OH))[dK](Picolinoyl)[Abu][Lys(iPr)]P[dA]-NH2)

Same assay, conditions: Table I; 10 ug peptide intradermally

Structure (SMILES)	Wheal [mm^2 /10]
CC(=O)N[C@H](Cc1ccc2ccccc2c1)C(=O)N[C@H](Cc1ccc(Cl)cc1)C(=O)N[C@H](Cc1cccnc1)C(=O)N[C@@H](CO)C(=O)N[C@@H](CCCCNC(=O)c1cccnc1)C(=O)N[C@@H](CCCCNC(=O)c1cccnc1)C(=O)N[C@@H](CC(C)C)C(=O)N[C@@H](CCCCNC(C)C)C(=O)N1CCC[C@H]1C(=O)N[C@H](C)C(N)=O [compound 24934] (Ac-[d2Nal][dPhe(4-Cl)][d3Pal]SK(Nicotinoyl)K(Nicotinoyl)L[Lys(iPr)]P[dA]-NH2)	123 ± 5.9
CC(=O)N[C@H](Cc1ccc2ccccc2c1)C(=O)N[C@H](Cc1ccc(Cl)cc1)C(=O)N[C@H](Cc1cccnc1)C(=O)N[C@@H](CO)C(=O)N[C@@H](CCCCNC(=O)c1ccc(C)nc1)C(=O)N[C@H](CCCCNC(=O)c1ccc(C)nc1)C(=O)N[C@@H](CC(C)C)C(=O)N[C@@H](CCCCNC(C)C)C(=O)N1CCC[C@H]1C(=O)N[C@H](C)C(N)=O [compound 25386] (Ac-[d2Nal][dPhe(4-Cl)][d3Pal]SK(Nicotinoyl(6-Me))[dK](Nicotinoyl(6-Me))L[Lys(iPr)]P[dA]-NH2)	126.1
CC(=O)N[C@H](Cc1ccc(Cl)cc1)C(=O)N[C@H](Cc1ccc(Cl)cc1)C(=O)N[C@H](Cc1cccnc1)C(=O)N[C@@H](CO)C(=O)N[C@@H](Cc1ccc(O)cc1)C(=O)N[C@H](CCCCNC(=O)c1cccnc1)C(=O)N[C@@H](CC(C)C)C(=O)N[C@@H](CCCCNC(C)C)C(=O)N1CCC[C@H]1C(=O)N[C@H](C)C(N)=O [compound 25337] (Ac-[dPhe(4-Cl)][dPhe(4-Cl)][d3Pal]SY[dK](Nicotinoyl)L[Lys(iPr)]P[dA]-NH2)	139.9
CC(=O)N[C@H](Cc1ccc2ccccc2c1)C(=O)N[C@H](Cc1ccc(Cl)cc1)C(=O)N[C@H](Cc1cccnc1)C(=O)N[C@@H](CO)C(=O)N[C@@H](Cc1cccnc1)C(=O)N[C@H](CCCCNC(=O)c1cccnc1)C(=O)N[C@@H](CC(C)C)C(=O)N[C@@H](CCCNC(C)C)C(=O)N1CCC[C@H]1C(=O)N[C@H](C)C(N)=O [compound 25384] (Ac-[d2Nal][dPhe(4-Cl)][d3Pal]S[3Pal][dK](Nicotinoyl)L[Orn(iPr)]P[dA]-NH2)	139.9
CC(=O)N[C@H](Cc1ccc2ccccc2c1)C(=O)N[C@H](Cc1ccc(Cl)cc1)C(=O)N[C@H](Cc1cccnc1)C(=O)N[C@@H](CO)C(=O)N[C@@H](CCCNC(=N)N)C(=O)N[C@H](CCCCNC(=O)c1cccnc1)C(=O)N[C@@H](CC(C)C)C(=O)N[C@@H](CCCCNC(C)C)C(=O)N1CCC[C@H]1C(=O)N[C@H](C)C(N)=O [compound 25335] (Ac-[d2Nal][dPhe(4-Cl)][d3Pal]SR[dK](Nicotinoyl)L[Lys(iPr)]P[dA]-NH2)	196.9
CC(=O)N[C@H](Cc1ccc2ccccc2c1)C(=O)N[C@H](Cc1ccc(Cl)cc1)C(=O)N[C@H](Cc1cccnc1)C(=O)N[C@@H](CO)C(=O)N[C@@H](Cc1cccnc1)C(=O)N[C@H](CCCCNC(=O)c1cccnc1)C(=O)N[C@@H](CC(C)C)C(=O)N[C@@H](CCCNC(=N)N)C(=O)N1CCC[C@H]1C(=O)N[C@H](C)C(N)=O [compound 24593] (Ac-[d2Nal][dPhe(4-Cl)][d3Pal]S[3Pal][dK](Nicotinoyl)LRP[dA]-NH2)	146.4 ± 3.6

More lines, now with the values ahead:

Wheal [mm^2 /10]	Structure (SMILES)
122.2 ± 5.1	CC(=O)N[C@H](Cc1ccc2ccccc2c1)C(=O)N[C@H](Cc1ccc(Cl)cc1)C(=O)N[C@H](Cc1cccnc1)C(=O)N[C@@H](CO)C(=O)N[C@@H](CCCCNC(=O)c1cccnc1)C(=O)N[C@H](CCCCNC(=O)c1cnccn1)C(=O)N[C@@H](CC(C)C)C(=O)N[C@@H](CCCCNC(C)C)C(=O)N1CCC[C@H]1C(=O)N[C@H](C)C(N)=O [compound 25649] (Ac-[d2Nal][dPhe(4-Cl)][d3Pal]SK(Nicotinoyl)[dK](Pyrazinecarbonyl)L[Lys(iPr)]P[dA]-NH2)
140.3	CC(=O)N[C@H](Cc1ccc2ccccc2c1)C(=O)N[C@H](Cc1ccc(Cl)cc1)C(=O)N[C@H](Cc1cccnc1)C(=O)N[C@@H](CO)C(=O)N[C@@H](CCCCNC(=O)c1ccncc1)C(=O)N[C@H](CCCCNC(=O)c1ccncc1)C(=O)N[C@@H](CC(C)C)C(=O)N[C@@H](CCCCNC(C)C)C(=O)N1CCC[C@H]1C(=O)N[C@H](C)C(N)=O [compound 25146] (Ac-[d2Nal][dPhe(4-Cl)][d3Pal]SK(Isonicotinoyl)[dK](Isonicotinoyl)L[Lys(iPr)]P[dA]-NH2)
122.7	CC(=O)N[C@H](Cc1ccc2ccccc2c1)C(=O)N[C@H](Cc1ccc(Cl)cc1)C(=O)N[C@H](Cc1cccnc1)C(=O)N[C@@H](CO)C(=O)N[C@@H](Cc1ccc(O)cc1)C(=O)N[C@H](CCCCNC(=O)c1cccnc1)C(=O)N[C@@H](CC(C)C)C(=O)N[C@@H](CCCCN(C)C)C(=O)N1CCC[C@H]1C(=O)N[C@H](C)C(N)=O [compound 24443] (Ac-[d2Nal][dPhe(4-Cl)][d3Pal]SY[dK](Nicotinoyl)L[Lys(Me2)]P[dA]-NH2)
113.6	CC(=O)N[C@H](Cc1ccc2ccccc2c1)C(=O)N[C@H](Cc1ccc(Cl)cc1)C(=O)N[C@H](Cc1cccnc1)C(=O)N[C@@H](CO)C(=O)N[C@@H](CCCNC(=O)c1cccnc1)C(=O)N[C@H](CCCCNC(=O)c1cccnc1)C(=O)N[C@@H](CC(C)C)C(=O)N[C@@H](CCCNC(C)C)C(=O)N1CCC[C@H]1C(=O)N[C@H](C)C(N)=O [compound 25333] (Ac-[d2Nal][dPhe(4-Cl)][d3Pal]S[Orn](Nicotinoyl)[dK](Nicotinoyl)L[Orn(iPr)]P[dA]-NH2)
